Format in all cases: cell-based
One test deals with CRBN (Homo sapiens, UniProt Q96SW2). As to the kind of experiment: Western blot dose-response degradation in HEK293 cells. The arrangement: Western blot data for BET, CRBN and VHL protein levels; endogenous in cells; host or cells: HEK293 (ATCC). The following applies: for DC50: HEK293 cells, 6 h, Western blot, mean ± S.E.M. of three experiments, values marked b mean ± S.D. of two; for fold increase in CRBN degradation vs nonmethylated matched pair: 27 vs 26, 24 vs 23. The protocol: (§1) HEK293 cells were obtained from ATCC. HEK293 was cultured in DMEM supplemented with 10% (v/v) fetal bovine serum (FBS), 1% […] and 1% (v/v) penicillin/streptomycin (pen/strep) at 37 °C, 5% CO2, and 95% humidity.
Sequence of CRBN (Q96SW2 whole entry): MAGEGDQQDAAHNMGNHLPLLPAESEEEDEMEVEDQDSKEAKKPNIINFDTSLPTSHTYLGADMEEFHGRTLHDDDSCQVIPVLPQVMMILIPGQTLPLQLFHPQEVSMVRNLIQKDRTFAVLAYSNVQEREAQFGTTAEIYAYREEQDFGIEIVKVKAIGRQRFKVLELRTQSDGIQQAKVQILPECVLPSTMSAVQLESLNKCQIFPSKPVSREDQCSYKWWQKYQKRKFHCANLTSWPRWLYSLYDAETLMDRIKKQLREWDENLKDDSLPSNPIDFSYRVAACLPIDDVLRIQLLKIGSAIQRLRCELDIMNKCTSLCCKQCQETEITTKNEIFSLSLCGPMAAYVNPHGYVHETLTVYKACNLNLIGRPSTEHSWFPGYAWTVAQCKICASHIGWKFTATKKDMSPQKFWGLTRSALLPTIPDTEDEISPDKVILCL
(§2) HEK293 cells were plated at a density of 5 × 10^5 cells per well of a six well plate a day prior to initiation of the experiment. Compounds were dissolved to a 10 mM concentrated stock solution in DMSO from which the compounds were further diluted to a working concentration range of 1 μM to 100 pM in DMEM and was subsequently added to cells at the initiation of the experiment. An additional vehicle control was added to cells alongside compound treatments. Cells were left to incubate with compound for 6 h at 37 °C, 5% CO2, and 95% humidity. Cells were then subsequently washed twice with PBS before being harvested in RIPA buffer supplemented with protease inhibitor cocktail and Benzonase Nuclease before being store at −20 °C.
(§3) Protein concentration was determined using the BCA assay. Samples were then prepared in LDS buffer containing 5% 1 M DTT and subsequently loaded onto NuPAGE 4–12% Bis-Tris Midi gels, followed by the transfer of the proteins onto nitrocellulose membranes. The membranes were blocked for 1 h prior to incubation with the primary antibodies using 5% Milk TBST. Membranes were incubated at 4 °C in either BRD4(Ab128874), BRD3(Ab50818), BRD2(Ab139690), VHL(CST#68547) and CRBN(CST#71810) primary antibody overnight. Following overnight incubation, the membranes were incubated with complementary IRDye 800CW secondary antibody and a hFAB Rhodamine Anti-Tubulin Primary Antibody (loading control) for 1 h and then imaged with a Bio-Rad imager. All Western blots were analyzed for band intensities using Image Lab (Bio-Rad). The data extracted from these blots were then plotted and analyzed using Prism (v. 10.2.2, GraphPad). Linear regression curve fitting was used to calculate pDC50 values. The standard deviation of the pDC50 was calculated for all compounds that had two independent repeats and the standard error of the mean calculated for all compounds that had three independent repeats. All Western blotting figures were developed in Adobe illustrator.

A further test deals with T1, BRD3 (Homo sapiens, UniProt Q15059).
T1 construct: HiBiT, is appended to the N-terminus of endogenous BRD2, BRD3, and BRD4; endogenous in cells
T1 sequence (Q15059 whole entry): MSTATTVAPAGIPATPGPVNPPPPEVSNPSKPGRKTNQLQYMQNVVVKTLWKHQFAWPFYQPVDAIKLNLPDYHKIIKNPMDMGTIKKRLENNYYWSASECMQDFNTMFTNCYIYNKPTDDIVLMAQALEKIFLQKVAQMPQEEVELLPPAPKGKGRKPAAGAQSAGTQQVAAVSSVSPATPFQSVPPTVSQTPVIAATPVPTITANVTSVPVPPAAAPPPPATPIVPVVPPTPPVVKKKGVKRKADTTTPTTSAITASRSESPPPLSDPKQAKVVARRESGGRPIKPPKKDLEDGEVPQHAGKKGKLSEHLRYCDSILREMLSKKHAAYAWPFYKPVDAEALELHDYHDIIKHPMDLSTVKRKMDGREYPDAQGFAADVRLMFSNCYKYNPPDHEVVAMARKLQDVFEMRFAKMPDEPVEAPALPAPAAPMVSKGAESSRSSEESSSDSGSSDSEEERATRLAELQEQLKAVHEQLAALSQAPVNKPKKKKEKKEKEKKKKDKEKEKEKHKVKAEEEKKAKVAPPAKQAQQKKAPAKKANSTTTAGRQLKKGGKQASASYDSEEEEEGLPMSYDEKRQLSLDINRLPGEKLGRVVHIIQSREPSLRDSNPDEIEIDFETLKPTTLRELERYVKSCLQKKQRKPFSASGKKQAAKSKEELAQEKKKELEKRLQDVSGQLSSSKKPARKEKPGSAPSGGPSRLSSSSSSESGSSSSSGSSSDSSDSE
The description is as above. The following applies: 6 h, mean ± S.E.M. of three experiments, values marked b mean ± S.D. of two. As to the method:
as §1, §2, §3

The target in the next test is T2, BRD4^Long (Homo sapiens, UniProt O60885).
T2 construct: Western blot data for BET, CRBN and VHL protein levels; endogenous in cells; host or cells: HEK293 (ATCC)
The test is described as above. As to conditions: HEK293 cells, 6 h, Western blot; mean ± S.E.M. of three experiments, values marked b mean ± S.D. of two. The protocol: as §1, §2, §3
In general terms: A western blot detects proteins with antibodies after separation by electrophoresis.

A further test deals with T3, BRD4^Short (Homo sapiens, UniProt O60885).
T3 construct: Western blot data for BET, CRBN and VHL protein levels; endogenous in cells; host or cells: HEK293 (ATCC)
The test is described as above. The following applies: 6 h, mean ± S.E.M. of three experiments, values marked b mean ± S.D. of two. The protocol: as §1, §2, §3

The target in test [1] is T4, BRD2 (Homo sapiens, UniProt P25440).
T4 construct: HiBiT, is appended to the N-terminus of endogenous BRD2, BRD3, and BRD4; endogenous in cells
T4 sequence (P25440 whole entry): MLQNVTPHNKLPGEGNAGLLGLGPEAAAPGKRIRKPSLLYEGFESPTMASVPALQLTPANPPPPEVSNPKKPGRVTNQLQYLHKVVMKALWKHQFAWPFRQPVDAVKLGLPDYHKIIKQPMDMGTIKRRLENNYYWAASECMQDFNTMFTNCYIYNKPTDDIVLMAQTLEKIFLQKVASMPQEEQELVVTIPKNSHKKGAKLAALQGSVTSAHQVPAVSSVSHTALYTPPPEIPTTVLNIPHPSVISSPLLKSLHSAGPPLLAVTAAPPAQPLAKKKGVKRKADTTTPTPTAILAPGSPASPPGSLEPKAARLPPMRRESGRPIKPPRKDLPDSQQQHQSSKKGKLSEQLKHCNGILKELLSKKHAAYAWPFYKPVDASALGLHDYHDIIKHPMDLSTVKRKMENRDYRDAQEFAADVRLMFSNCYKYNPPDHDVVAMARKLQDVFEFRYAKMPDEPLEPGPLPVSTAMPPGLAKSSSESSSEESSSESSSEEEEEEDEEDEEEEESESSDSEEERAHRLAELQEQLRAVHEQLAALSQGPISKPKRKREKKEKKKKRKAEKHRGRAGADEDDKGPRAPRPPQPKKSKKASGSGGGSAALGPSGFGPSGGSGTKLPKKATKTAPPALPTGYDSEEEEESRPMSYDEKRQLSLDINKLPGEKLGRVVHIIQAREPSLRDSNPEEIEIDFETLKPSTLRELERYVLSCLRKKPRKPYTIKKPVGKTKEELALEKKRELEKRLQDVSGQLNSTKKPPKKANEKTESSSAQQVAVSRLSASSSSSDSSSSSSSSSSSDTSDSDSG
The test is described as above. As to conditions: 6 h, mean ± S.E.M. of three experiments, values marked b mean ± S.D. of two. The protocol:
as §1, §2, §3

Test [2] has as its target T4, BRD2. As to the kind of experiment: Live cell kinetic HiBiT degradation assay, HiBiT-BRD2 HEK293 cells. The following applies: for λmax BRD2 (degradation rate): HiBiT-BRD2 knock-in HEK293 cells; for DC50: HiBiT-BRD2 CRISPR knock-in HEK293 cells, live cell kinetic degradation, 24 h, read-out: Dmax 50 BRD2. As to the method: HEK293 HiBiT-BRD2 (LgBiT stable), HEK293 HiBiT-BRD3 (LgBiT stable), and HEK293 HiBiT-BRD4 (LgBiT stable) were created using CRISPR/Cas9 to insert at HiBiT tag at the N-terminal genomic loci of BRD2, BRD3, or BRD4 in a cell line stably expressing LgBiT protein as described previously.[23]
For kinetic degradation experiments, HEK293 HiBiT-BRD2, 3, or 4 (LgBiT stable) cells and HEK293 HiBiT-BRD4 (LgBiT) CRBN KO and VHL KO cells were plated at 20,000 cells/well in DMEM +10% FBS in white 96-well tissue culture plates and allowed to adhere overnight. The next day, media was removed and 90 μL of prewarmed CO2-independent medium (Gibco) containing Endurazine (Promega) at a 1:100 dilution from stock was added. Plates were incubated at 37 °C for 3 h to allow luminescence to equilibrate. A threefold dilution series of each PROTAC at 10x the desired final concentration was prepared (with the amount of DMSO in each treatment condition kept constant). After luminescence equilibration, a preread luminescence measurement was taken (prior to compound addition) to allow for baseline normalization to account for possible plating differences. Cells were then treated with 10 μL of the prepared PROTAC dilution series (in triplicate or quadruplicate). Treated plates were placed in a GloMax Discover luminometer (Promega) prewarmed to 37 °C and luminescence measurements were obtained every 7 min for 24 h. Kinetic degradation plots were obtained by first normalizing time course luminescence readings in each well to the preread measurement, then to the average value of the DMSO only control at each time point. Data was analyzed using GraphPad Prism (version 8) and excel. Dmax values were identified as the lowest luminescence reading in each well. Rate constant values were calculated using a one phase exponential decay Y = (Y0-Plateau) e(K*^X) + Plateau using Prism (Y0 constrained to 1). Dmax 50 values were calculated by plotting Dmax as a function of concentration, then fitting plots using the following equation: [drawing 1] to determine IC50.
(HiBiT is a short tag that completes a luciferase, so light tracks the accessible tagged protein.)

For `Cc1ncsc1-c1ccc(CNC(=O)[C@@H]2C[C@@H](O)CN2C(=O)[C@@H](NC(=O)COCC(C)(COCCOCCOCCNc2cccc3c2C(=O)N(C2CCC(=O)NC2=O)C3=O)COCCOCCOCCOC(=O)C[C@@H]2N=C(c3ccc(Cl)cc3)c3c(sc(C)c3C)-n3c(C)nnc32)C(C)(C)C)cc1` (mixture of isomers) [AB3062 (23), (17S)-11-((2-(2-(2-((2-(2,6-dioxopiperidin-3-yl)-1,3-dioxoisoindolin-4-yl)amino)ethoxy)ethoxy)ethoxy)methyl)-17-((2S,4R)-4-hydroxy-2-((4-(4-methylthiazol-5-yl)benzyl)carbamoyl)pyrrolidine-1-carbonyl)-11,18,18-trimethyl-15-oxo-3,6,9,13-tetraoxa-16-azanonadecyl 2-((S)-4-(4-chlorophenyl)-2,3,9-trimethyl-6H-thieno[3,2-f][1,2,4]triazolo[4,3-a][1,4]diazepin-6-yl)acetate], the DC50 on CRBN was 200 ± 110 nM; on BRD3 it was 11 ± 4.6 nM; at BRD4^Long, 2.5 ± 0.5 nM; on BRD4^Short, 11 ± 3.7 nM; at BRD2 [1], 58 ± 16 nM. Further, the “λmax BRD2 (degradation rate)” value at BRD2 [2] is 1.12 h⁻¹.
`Cc1ncsc1-c1ccc([C@H](C)NC(=O)[C@@H]2C[C@@H](O)CN2C(=O)[C@@H](NC(=O)COCC(C)(COCCOCCOCCNc2cccc3c2C(=O)N(C2CCC(=O)NC2=O)C3=O)COCCOCCOCCOC(=O)C[C@@H]2N=C(c3ccc(Cl)cc3)c3c(sc(C)c3C)-n3c(C)nnc32)C(C)(C)C)cc1` (mixture of isomers) [AB3066 (24), (17S)-11-((2-(2-(2-((2-(2,6-dioxopiperidin-3-yl)-1,3-dioxoisoindolin-4-yl)amino)ethoxy)ethoxy)ethoxy)methyl)-17-((2S,4R)-4-hydroxy-2-(((S)-1-(4-(4-methylthiazol-5-yl)phenyl)ethyl)carbamoyl)pyrrolidine-1-carbonyl)-11,18,18-trimethyl-15-oxo-3,6,9,13-tetraoxa-16-azanonadecyl 2-((S)-4-(4-chlorophenyl)-2,3,9-trimethyl-6H-thieno[3,2-f][1,2,4]triazolo[4,3-a][1,4]diazepin-6-yl)acetate]: the “fold increase in CRBN degradation vs nonmethylated matched pair” value on CRBN (DC50, HEK293 Western blot) is roughly 2.6 fold. Besides, the DC50 on CRBN was 81 ± 11 nM; on BRD3, 8.9 ± 1.5 nM; at BRD4^Long it was 6.8 ± 1.3 nM; at BRD4^Short, 5.9 ± 2.3 nM; at BRD2 [1], 43 ± 1.1 nM; at BRD2 [2], 7.3 nM. Also, on BRD2 [2], the “λmax BRD2 (degradation rate)” value was 2.04 h⁻¹.
For the compound `Cc1ncsc1-c1ccc(CNC(=O)[C@@H]2C[C@@H](O)CN2C(=O)[C@@H](NC(=O)COCC(C)(COCCOCCOCCOC(=O)C[C@@H]2N=C(c3ccc(Cl)cc3)c3c(sc(C)c3C)-n3c(C)nnc32)COCCOCCOCCN2CCN(c3cc4c(cc3F)C(=O)N(C3CCC(=O)NC3=O)C4=O)CC2)C(C)(C)C)cc1` (mixture of isomers) [AB3030 (32), (17S)-11-((2-(2-(2-(4-(2-(2,6-dioxopiperidin-3-yl)-6-fluoro-1,3-dioxoisoindolin-5-yl)piperazin-1-yl)ethoxy)ethoxy)ethoxy)methyl)-17-((2S,4R)-4-hydroxy-2-((4-(4-methylthiazol-5-yl)benzyl)carbamoyl)pyrrolidine-1-carbonyl)-11,18,18-trimethyl-15-oxo-3,6,9,13-tetraoxa-16-azanonadecyl 2-((S)-4-(4-chlorophenyl)-2,3,9-trimethyl-6H-thieno[3,2-f][1,2,4]triazolo[4,3-a][1,4]diazepin-6-yl)acetate], on CRBN (31 and 32 compared with 23 and 27, respectively, DC50, HEK293 Western blot), the “fold weaker degradation of CRBN compared with aniline tethered matched pair” value stood at 3.7 fold. For the same compound, the DC50 was found to be 730 ± 270 nM at CRBN; 6.4 ± 1.9 nM at BRD3; 7.3 ± 2.1 nM on BRD4^Long; 9.4 ± 1.9 nM on BRD4^Short; 28 ± 7.3 nM at BRD2 [1]; 25 nM on BRD2 [2]. The “λmax BRD2 (degradation rate)” value on BRD2 [2] came out at 2.04 h⁻¹.
On to `Cc1ncsc1-c1ccc(CNC(=O)[C@@H]2C[C@@H](O)CN2C(=O)[C@@H](NC(=O)COCC(C)(COCCOCCNc2cc3c(cc2F)C(=O)N(C2CCC(=O)NC2=O)C3=O)COCCOCCOCCOC(=O)C[C@@H]2N=C(c3ccc(Cl)cc3)c3c(sc(C)c3C)-n3c(C)nnc32)C(C)(C)C)cc1` (mixture of isomers) [AB3126 (29), (17S)-11-((2-(2-((2-(2,6-dioxopiperidin-3-yl)-6-fluoro-1,3-dioxoisoindolin-5-yl)amino)ethoxy)ethoxy)methyl)-17-((2S,4R)-4-hydroxy-2-((4-(4-methylthiazol-5-yl)benzyl)carbamoyl)pyrrolidine-1-carbonyl)-11,18,18-trimethyl-15-oxo-3,6,9,13-tetraoxa-16-azanonadecyl 2-((S)-4-(4-chlorophenyl)-2,3,9-trimethyl-6H-thieno[3,2-f][1,2,4]triazolo[4,3-a][1,4]diazepin-6-yl)acetate], for which the DC50 stood at 150 ± 190 nM at CRBN; 6.6 ± 0.3 nM at BRD3; 5 ± 5.3 nM at BRD4^Long; 5.3 ± 5.5 nM on BRD4^Short; 33 ± 34 nM on BRD2 [1]; 18 nM at BRD2 [2]. Further, the “λmax BRD2 (degradation rate)” value at BRD2 [2] came to 2.35 h⁻¹.
For the compound `Cc1ncsc1-c1ccc([C@H](C)NC(=O)[C@@H]2C[C@@H](O)CN2C(=O)[C@@H](NC(=O)COCC(C)(COCCOCCOCCNc2cc3c(cc2F)C(=O)N(C2CCC(=O)NC2=O)C3=O)COCCOCCOCCOC(=O)C[C@@H]2N=C(c3ccc(Cl)cc3)c3c(sc(C)c3C)-n3c(C)nnc32)C(C)(C)C)cc1` (mixture of isomers) [AB3067 (27), (17S)-11-((2-(2-(2-((2-(2,6-dioxopiperidin-3-yl)-6-fluoro-1,3-dioxoisoindolin-5-yl)amino)ethoxy)ethoxy)ethoxy)methyl)-17-((2S,4R)-4-hydroxy-2-(((S)-1-(4-(4-methylthiazol-5-yl)phenyl)ethyl)carbamoyl)pyrrolidine-1-carbonyl)-11,18,18-trimethyl-15-oxo-3,6,9,13-tetraoxa-16-azanonadecyl 2-((S)-4-(4-chlorophenyl)-2,3,9-trimethyl-6H-thieno[3,2-f][1,2,4]triazolo[4,3-a][1,4]diazepin-6-yl)acetate], on CRBN (DC50, HEK293 Western blot), the “fold increase in CRBN degradation vs nonmethylated matched pair” value is roughly 2.6 fold. Moreover, the DC50 on CRBN amounted to 75 ± 14 nM; at BRD3, 1.6 ± 0.3 nM; on BRD4^Long, 2.3 ± 0.4 nM; at BRD4^Short it was 2.1 ± 0.3 nM; on BRD2 [1] it was 15 ± 2.1 nM; at BRD2 [2], 2 nM. On BRD2 [2], the “λmax BRD2 (degradation rate)” value is 2.37 h⁻¹.

The record behind these values is article PMC11638965, “Leveraging Dual-Ligase Recruitment to Enhance Protein Degradation via a Heterotrivalent Proteolysis Targeting Chimera” (Journal of the American Chemical Society, 2024).
